Blank lines part the entries; values can stand above or below the compound they belong to.
Experiments:
[1] = system: human erythrocytes; experiment: Hemolytic activity; format: cell-based; settings: red blood cells
Text: An important characteristic when assessing the biological activity of new chemical compounds is their cytotoxic effect on eukaryotic cells. The ability of an investigated compound to cause the destruction of human erythrocytes illustrates its toxic effect on the internal environment. The hemolysis assay is a simple screening test that can help in the study of cytotoxicity in more complex models. Cell lines obtained from various human organs and tissues that allow for adequate estimation of the effects of new potential drugs on cell metabolism can serve as experimental models.
The hemolytic activity of the QPSs was estimated by comparing the optical density of a solution containing the test compound with that of blood at 100% hemolysis. The experiments were carried out as previously described.

[2] = system: Chang liver cell line; experiment: Cytotoxicity assay (Cytell Cell Imaging, DAPI/propidium iodide); format: cell-based, human; settings: for IC50: Homo sapiens, Chang liver, read-out: IC50 (concentration that causes the death of 50% of the cells), Chang liver cells; for IC50 (concentration that causes the death of 50% of the cells): Chang liver cells
[3] = system: Candida albicans ATCC 10231; experiment: Fungicidal activity, serial dilution technique; format: cell-based; settings: average of three ± SD, - means non-active; for MIC: read-out: Minimum Inhibitory Concentration (MIC), Ca
In short: (§1)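 Broth serial dilution in Mueller–Hinton Broth 2 at 3.0 × 10^5 cfu/mL, incubated at 37 °C with growth scored every 24 h for 5 days. MIC taken as lowest concentration inhibiting growth; three repeats.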

[4] = system: Trichophyton mentagrophytes var. gypseum 1773; experiment: Fungicidal activity, serial dilution technique; format: cell-based; settings: Tm, average of three ± SD, - means non-active; for MBC / MIC: Trichophyton mentagrophytes; for MBC: read-out: Minimum Bactericidal and Fungicidal Concentration (MBC, MFC), Tm; for MIC: read-out: Minimum Inhibitory Concentration (MIC), Tm
In short: as §1

[5] = system: Enterococcus faecalis ATCC 2921; experiment: Antimicrobial activity, serial dilution technique in Mueller–Hinton Broth 2; format: cell-based; settings: average of three ± SD, - means non-active
In short: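 Antibacterial activity against Enterococcus faecalis ATCC 2921 was assessed by serial dilution in Mueller–Hinton Broth 2 with a bacterial load of 3.0 × 10^5 cfu/mL. Cultures were incubated at 37 °C, with growth recorded every 24 h for 5 days, and the experiment was performed three times.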

[6] = system: Escherichia coli ATCC 25922; experiment: as above; format: cell-based; settings: average of three ± SD, - means non-active; for MIC: Escherichia coli, ATCC25922, Ec, read-out: Minimum Inhibitory Concentration (MIC), Ec
In short: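 Growth inhibition is scored in Mueller–Hinton Broth 2 dilution series seeded with 3.0 × 10^5 cfu/mL and held at 37 °C for up to 5 days. Values reported are MICs, the lowest concentration without growth.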

[7] = system: Pseudomonas aeruginosa ATCC 9027; experiment: as above; format: cell-based; settings: average of three ± SD, - means non-active; for MBC: read-out: Minimum Bactericidal and Fungicidal Concentration (MBC, MFC), Pa
[8] = system: Staphylococcus aureus ATCC 6538P FDA 209P; experiment: as above; format: cell-based; settings: average of three ± SD, - means non-active; for MIC: read-out: Minimum Inhibitory Concentration (MIC), Sa
In short: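 Using a broth serial dilution method in Mueller–Hinton Broth 2, S. aureus ATCC 6538P FDA 209P (3.0 × 10^5 cfu/mL) was exposed to compounds at 37 °C and observed daily over 5 days. MIC was the lowest concentration preventing growth; bacteriostatic absence of growth was also noted, with three replicate experiments.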

[9] = system: Bacillus cereus ATCC 10702 NCTC 8035; experiment: as above; format: cell-based; settings: average of three ± SD, - means non-active; for MIC: read-out: Minimum Inhibitory Concentration (MIC), Bc
In short: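 Compounds were serially diluted in Mueller–Hinton Broth 2 and inoculated with the Gram-positive strain Bacillus cereus ATCC 10702 NCTC 8035 at 3.0 × 10^5 cfu/mL, then incubated at 37 °C. Observations were taken every 24 h over 5 days in three repeat experiments. The MIC was the lowest concentration that stopped growth, with bacteriostatic absence of growth also noted.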

[10] = system: Escherichia coli ATCC 25922; experiment: as above; format: cell-based; settings: average of three ± SD, - means non-active; for MBC: Escherichia coli, ATCC25922, Ec, read-out: Minimum Bactericidal and Fungicidal Concentration (MBC, MFC), Ec
[11] = system: methicillin-resistant S. aureus MRSA-1; experiment: as above; format: cell-based, Staphylococcus aureus; settings: - means non-active
In short: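 Antimicrobial activity against methicillin-susceptible Staphylococcus aureus MRSA-1, a hospital isolate from a chronic tonsillitis patient that is resistant to fluoroquinolones and beta-lactams, was determined by serial dilution in Mueller–Hinton Broth 2. The bacterial load was 3.0 × 10^5 cfu/mL, incubation was at 37 °C, and growth was recorded every 24 h for 5 days.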

[12] = system: methicillin-resistant S. aureus MRSA-2; experiment: as above; format: cell-based, Staphylococcus aureus; settings: - means non-active
In short: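 Antimicrobial activity against methicillin-susceptible Staphylococcus aureus MRSA-2, a beta-lactam-resistant clinical isolate from a sinusitis patient at the Republican Clinical Hospital (Kazan), was assessed by serial dilution in Mueller–Hinton Broth 2. The inoculum was 3.0 × 10^5 cfu/mL. Cultures were incubated at 37 °C and read every 24 h for 5 days, in three repeat experiments.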

[13] = Candida albicans, ATCC10231, Ca
[14] = Pseudomonas aeruginosa, ATCC9027, Pa
[15] = MRSA-1 (resistant to fluoroquinolones and beta-lactams)
[16] = MRSA-2 (resistant to beta-lactams)

Structure (SMILES): CC[P+](C(C)(C)C)(C(C)(C)C)C(C)(C)C [Compound 2a]
- HC50 (concentration that causes 50% hemolysis of erythrocytes) [1]: > 125 µg/mL
- IC50 [2]: > 100 µg/mL

- Minimum Inhibitory Concentration (MIC), Ef [5]: 3.9 ± 0.3 µg/mL
- MIC [6]: 3.9 ± 0.02 µg/mL
- Minimum Inhibitory Concentration (MIC), Pa ([7]; Pa): 15.6 ± 1.3 µg/mL
- MIC ([8]; Staphylococcus aureus, Sa): 0.2 ± 0.01 µg/mL
- MIC ([9]; Bacillus cereus, Bc): 0.9 ± 0.07 µg/mL
- MIC ([11]; Staphylococcus aureus, MRSA, MRSA-1 (resistant to fluoroquinolones and beta-lactams), read-out: Minimum Inhibitory Concentration (MIC), MRSA-1): 0.5 ± 0.04 µg/mL
- MIC ([12]; Staphylococcus aureus, MRSA, MRSA-2 (resistant to beta-lactams), read-out: Minimum Inhibitory Concentration (MIC), MRSA-2): 0.3 ± 0.02 µg/mL
Structure (SMILES): CCCCCCCCCCCCC[P+](C(C)(C)C)(C(C)(C)C)C(C)(C)C [Compound 13a, tri-tert-butyl(n-tridecyl)phosphonium]
- Minimum Bactericidal and Fungicidal Concentration (MBC, MFC), Ca ([3]; Ca): 31.3 ± 2.2 µg/mL
- MIC [3, 13]: 15.6 ± 1.2 µg/mL
- MBC [4]: 125 ± 10 µg/mL
- MIC [4]: 125 ± 10 µg/mL
- MBC ([5]; Enterococcus faecalis, ATCC2921, Ef, read-out: Minimum Bactericidal and Fungicidal Concentration (MBC, MFC), Ef): 7.8 ± 0.6 µg/mL
- MBC [7, 14]: 31.3 ± 2.4 µg/mL
- Minimum Bactericidal and Fungicidal Concentration (MBC, MFC), Sa [8]: 0.5 ± 0.04 µg/mL
- Minimum Bactericidal and Fungicidal Concentration (MBC, MFC), Bc [9]: 7.8 ± 0.6 µg/mL
- MBC [10]: 3.9 ± 0.2 µg/mL
- MBC ([11]; Staphylococcus aureus, MRSA, MRSA-1, read-out: Minimum Bactericidal and Fungicidal Concentration (MBC, MFC), MRSA-1): 0.3 ± 0.02 µg/mL
- Minimum Bactericidal and Fungicidal Concentration (MBC, MFC), MRSA-2 [12]: 0.5 ± 0.03 µg/mL

Structure (SMILES): CCCCCCCCCCCC[P+](C(C)(C)C)(C(C)(C)C)C(C)(C)C [Compound 12b]
- Minimum Bactericidal and Fungicidal Concentration (MBC, MFC), Ca ([3]; Ca): 15.6 ± 1.3 µg/mL
- Minimum Inhibitory Concentration (MIC), Ca ([3]; Ca): 15.6 ± 1.3 µg/mL
- Minimum Bactericidal and Fungicidal Concentration (MBC, MFC), Tm [4]: 62.5 ± 5.2 µg/mL
- Minimum Inhibitory Concentration (MIC), Tm [4]: 31.3 ± 2.4 µg/mL
- Minimum Bactericidal and Fungicidal Concentration (MBC, MFC), Ef [5]: 15.6 ± 1.3 µg/mL
- Minimum Inhibitory Concentration (MIC), Ef [5]: 1.9 ± 0.02 µg/mL
- Minimum Inhibitory Concentration (MIC), Ec [6]: 15.6 ± 1.3 µg/mL
- Minimum Bactericidal and Fungicidal Concentration (MBC, MFC), Pa ([7]; Pa): 125 ± 10 µg/mL
- Minimum Inhibitory Concentration (MIC), Pa ([7]; Pa): 125 ± 11 µg/mL
- Minimum Inhibitory Concentration (MIC), Sa [8]: 0.5 ± 0.03 µg/mL
- Minimum Bactericidal and Fungicidal Concentration (MBC, MFC), Bc [9]: 62.5 ± 5.5 µg/mL
- Minimum Inhibitory Concentration (MIC), Bc [9]: 1.9 ± 0.01 µg/mL
- Minimum Bactericidal and Fungicidal Concentration (MBC, MFC), Ec [10]: 15.6 ± 1.2 µg/mL
- Minimum Inhibitory Concentration (MIC), MRSA-1 [11, 15]: 1.9 ± 0.1 µg/mL
- Minimum Inhibitory Concentration (MIC), MRSA-2 [12, 16]: 0.5 ± 0.04 µg/mL
- Minimum Bactericidal and Fungicidal Concentration (MBC, MFC), MRSA-2 [12]: 31.3 ± 2.7 µg/mL

Structure (SMILES): CCCCCCCCC[P+](C(C)(C)C)(C(C)(C)C)C(C)(C)C [Compound 9b]
- HC50 (concentration that causes 50% hemolysis of erythrocytes) [1]: > 125 µg/mL
- Minimum Bactericidal and Fungicidal Concentration (MBC, MFC), Ef [5]: 125 µg/mL
- Minimum Inhibitory Concentration (MIC), Ef [5]: 31.3 µg/mL
- Minimum Inhibitory Concentration (MIC), Ec [6]: 250 µg/mL
- Minimum Bactericidal and Fungicidal Concentration (MBC, MFC), Sa [8]: 15.6 µg/mL
- Minimum Inhibitory Concentration (MIC), Bc [9]: 31.3 µg/mL
- Minimum Bactericidal and Fungicidal Concentration (MBC, MFC), Ec [10]: 250 µg/mL
- Minimum Inhibitory Concentration (MIC), MRSA-2 [12, 16]: 31.3 µg/mL
- IC50 (concentration that causes the death of 50% of the cells) [2]: > 100 µg/mL

Structure (SMILES): CCCC[P+](C(C)(C)C)(C(C)(C)C)C(C)(C)C [Compound 4a]
- HC50 (concentration that causes 50% hemolysis of erythrocytes) [1]: > 125 µg/mL
- IC50 [2]: > 100 µg/mL

- Minimum Inhibitory Concentration (MIC), Ef [5]: 1.9 ± 0.1 µg/mL
- MIC [6]: 15.6 ± 1.2 µg/mL
- MIC ([7]; Pseudomonas aeruginosa, ATCC9027, Pa, read-out: Minimum Inhibitory Concentration (MIC), Pa): 7.8 ± 0.5 µg/mL
- Minimum Inhibitory Concentration (MIC), Sa [8]: 0.2 ± 0.01 µg/mL
- Minimum Inhibitory Concentration (MIC), Bc [9]: 0.9 ± 0.07 µg/mL
- Minimum Inhibitory Concentration (MIC), MRSA-1 [11, 15]: 0.9 ± 0.06 µg/mL
- Minimum Inhibitory Concentration (MIC), MRSA-2 [12, 16]: 0.9 ± 0.07 µg/mL
Structure (SMILES): CCCCCCCCCCCCCCCCC[P+](C(C)(C)C)(C(C)(C)C)C(C)(C)C [Compound 17a]
- MBC ([3]; Candida albicans, ATCC10231, Ca, read-out: Minimum Bactericidal and Fungicidal Concentration (MBC, MFC), Ca): 3.9 ± 0.2 µg/mL
- MIC [3, 13]: 1.9 ± 0.1 µg/mL
- MBC [4]: 125 ± 10 µg/mL
- MIC [4]: 125 ± 10 µg/mL
- Minimum Bactericidal and Fungicidal Concentration (MBC, MFC), Ef [5]: 1.9 ± 0.1 µg/mL
- MBC [7, 14]: 7.8 ± 0.7 µg/mL
- MBC ([8]; Staphylococcus aureus, Sa, read-out: Minimum Bactericidal and Fungicidal Concentration (MBC, MFC), Sa): 0.5 ± 0.03 µg/mL
- MBC ([9]; Bacillus cereus, Bc, read-out: Minimum Bactericidal and Fungicidal Concentration (MBC, MFC), Bc): 15.6 ± 1.2 µg/mL
- MBC [10]: 15.6 ± 1.3 µg/mL
- Minimum Bactericidal and Fungicidal Concentration (MBC, MFC), MRSA-1 ([11]; MRSA-1): 0.9 ± 0.07 µg/mL
- Minimum Bactericidal and Fungicidal Concentration (MBC, MFC), MRSA-2 [12]: 0.9 ± 0.06 µg/mL

Structure (SMILES): CCCCCCC[P+](C(C)(C)C)(C(C)(C)C)C(C)(C)C [Compound 7a]
- HC50 (concentration that causes 50% hemolysis of erythrocytes) [1]: > 125 µg/mL
- MIC ([5]; Enterococcus faecalis, ATCC2921, Ef, read-out: Minimum Inhibitory Concentration (MIC), Ef): 125 µg/mL
- MIC ([8]; Staphylococcus aureus, Sa): 62.5 ± 5.5 µg/mL
- MIC ([9]; Bacillus cereus, Bc): 125 ± 10 µg/mL
- IC50 [2]: > 100 µg/mL

Structure (SMILES): CCCCCC[P+](C(C)(C)C)(C(C)(C)C)C(C)(C)C [Compound 6b]
- HC50 (concentration that causes 50% hemolysis of erythrocytes) [1]: > 125 µg/mL
- Minimum Inhibitory Concentration (MIC), Sa [8]: 250 ± 19 µg/mL
- IC50 (concentration that causes the death of 50% of the cells) [2]: > 100 µg/mL

From publication PMC8744835, “Sterically Hindered Quaternary Phosphonium Salts (QPSs): Antimicrobial Activity and Hemolytic and Cytotoxic Properties” (International Journal of Molecular Sciences, 2021)
